Measured values reported in patent publication US20260224714A1, “CYCLING LYSOSOMAL TARGETING ANTIBODY CONJUGATES” (Lycia Therapeutics, Inc., priority 2023, published 2026).

Tests used:
Type in all cases: cell-based
HepG2 cells = assay: Externalization of conjugates from a cell following internalization (cycling), high-throughput format (Example 11); conditions: 50 nM conjugate 1 hour, stringent washes, Alexa Fluor 647-labelled a-human IgG 1 hour, FACS, normalized to unconjugated parent protein, average of two replicate wells
Method in brief: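 25,000 HepG2 cells incubated with conjugate for 1 h at indicated concentrations, then chilled and washed (DPBS, pH 5.2 acetate, pH 2.5 EBSS) to strip surface conjugate. Recycled conjugate captured by 1 μg/ml AF647 anti-human IgG in 37 °C EMEM for 1 h; median AF647 by flow cytometry, mean of two wells.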

recombinant IgE = assay: Degradation of super-stoichiometric levels of target in HepG2 cells (Example 13, Table 31); conditions: 1 nM conjugate and 25 nM IgE for three days, (A-B)/C IgE depleted relative to conjugate, average of two replicate wells
Method in brief: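 HepG2 cells in EMEM/10% FBS were incubated with 1 nM conjugate plus 25 nM recombinant IgE for 72 h. IgE in medium at start and end quantified by MSD/ELISA-type assay; value is molar equivalents IgE depleted per conjugate, (initial − day-3 IgE)/conjugate concentration, mean of two wells.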

[1] = test system: Alexa Fluor647 labelled human IgE; assay: Uptake assay: internalization of Alexa Fluor 647 labelled IgE in ASGPR1/2 KO HepG2 cells (Example 6); conditions: equimolar conjugate and AF647 IgE, normalized to unconjugated parent protein
Method in brief: (§1)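 HepG2 cells (wild type or ASGPR1/2 KO) pre-blocked with Fc receptor blocker, then exposed 2 h to conjugate precomplexed equimolar with AF647-labelled human IgE (30 min, room temperature) at 300 nM to 1.23 nM final. Median cellular AF647 by flow cytometry, normalized to unconjugated parent protein.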

[2] = test system: Alexa Fluor647 labelled human IgE; assay: Uptake assay: internalization of Alexa Fluor 647 labelled IgE in wild type HepG2 cells (Example 6); conditions: equimolar conjugate and AF647 IgE, 2 hours, median cellular AF647 intensity by flow cytometry, normalized to unconjugated parent protein
Method in brief: as §1

[3] = test system: LysoLight-labelled human IgE; assay: Lysosomal degradation of LysoLight-labelled IgE in HepG2 cells, live cell imaging (Example 7); conditions: equimolar conjugate:LysoLight IgE, area under the curve of deep red fluorescence over three days, normalized to unconjugated parent protein
Method in brief: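 Conjugate precomplexed 30 min at room temperature with equimolar LysoLight-labelled human IgE, added to Fc-receptor-blocked HepG2 cells at final 100–1.23 nM. Red fluorescence, released on lysosomal cathepsin cleavage, imaged hourly for 72 h starting 1 h post-addition; area under the fluorescence–time curve taken as total degradation.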

human IgE = assay: Degradation of initial and subsequent dose of target in HepG2 cells (Example 12, Table 30); conditions: normalized to unconjugated; for Normalized Fluorescence Post Wash Median Green: after wash, probe-conjugated IgE added for 4 hours, subsequent dose of target; for Normalized Fluorescence Precomplex Median Deep Red: precomplexed equimolar conjugate:IgE (cathepsin-cleavable quenched fluorescent probe) added for 2 hours, initial dose of target
Method in brief: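 HepG2 cells exposed 2 h to conjugate precomplexed (30 min, 37 °C, equimolar) with 647-quenched-probe human IgE, acid/ice washed, then given 488-probe IgE without conjugate for 4 h. Median 647 (initial) and 488 (recycled) fluorescence by flow cytometry, normalised to unconjugated parent; mean of two wells.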

## CC(=O)N[C@@H]1[C@@H](O)[C@@H](O)[C@@H](CO)O[C@@H]1CCCOCCOCCNC(=O)NCCCC(CCCNC(=O)NCCOCCOCCC[C@H]1O[C@H](CO)[C@H](O)[C@H](O)[C@H]1NC(C)=O)(CCCNC(=O)NCCOCCOCCC[C@H]1O[C@H](CO)[C@H](O)[C@H](O)[C@H]1NC(C)=O)NC(=O)NCCOCCOCCOCCN(C)C(=O)c1ccc(N2C(=O)C=CC2=O)cc1 [Compound 2322]
HepG2 cells
  Normalized Fluorescence: 46.8
Recombinant IgE
  Average Degradation (Molar equivalents): 5.2 Molar equivalents
[1]
  Normalized Fluorescence 100 nM ASGPR KO: 1.2
[2]
  Normalized Fluorescence 3.7 nM WT: 68.5
  Normalized Fluorescence 100 nM WT: 214.4
[3]
  Normalized Fluorescence 3.7 nM: 7.8
  Normalized Fluorescence 100 nM: 3.5
Human IgE
  Normalized Fluorescence Post Wash Median Green: 3.3
  Normalized Fluorescence Precomplex Median Deep Red: 3.5

## CC(=O)N[C@@H]1[C@@H](O)[C@@H](O)[C@@H](CO)O[C@@H]1CCCCCOCCOCCNC(=O)NCCCOCC(COCCCNC(=O)NCCOCCOCCCCC[C@@H]1O[C@@H](CO)[C@@H](O)[C@@H](O)[C@@H]1NC(C)=O)(COCCCNC(=O)NCCOCCOCCCCC[C@H]1O[C@H](CO)[C@H](O)[C@H](O)[C@H]1NC(C)=O)NC(=O)CCOCCOCCOCCNC(=O)c1ccc(N2C(=O)C=CC2=O)cc1 (stereo partly drawn) [Compound 2317]
HepG2 cells
  Normalized Fluorescence: 48.8
Recombinant IgE
  Average Degradation (Molar equivalents): 4.0 Molar equivalents
[1]
  Normalized Fluorescence 100 nM ASGPR KO: 1.1
[2]
  Normalized Fluorescence 3.7 nM WT: 76.2
  Normalized Fluorescence 100 nM WT: 255.2
[3]
  Normalized Fluorescence 3.7 nM: 15.2
  Normalized Fluorescence 100 nM: 4.2
Human IgE
  Normalized Fluorescence Post Wash Median Green: 3.7
  Normalized Fluorescence Precomplex Median Deep Red: 3.6

## CC(=O)N[C@@H]1[C@@H](O)[C@@H](O)[C@@H](CO)O[C@@H]1CCCOCCOCCNC(=O)NCCCC(CCCNC(=O)NCCOCCOCCC[C@H]1O[C@H](CO)[C@H](O)[C@H](O)[C@H]1NC(C)=O)(CCCNC(=O)NCCOCCOCCC[C@H]1O[C@H](CO)[C@H](O)[C@H](O)[C@H]1NC(C)=O)NC(=O)NCCOCCOCCOCCNS(=O)(=O)c1ccc(N2C(=O)C=CC2=O)cc1 [Compound 2315]
HepG2 cells
  Normalized Fluorescence: 48.8
Recombinant IgE
  Average Degradation (Molar equivalents): 4.5 Molar equivalents
[1]
  Normalized Fluorescence 100 nM ASGPR KO: 1.1
[2]
  Normalized Fluorescence 3.7 nM WT: 77.7
  Normalized Fluorescence 100 nM WT: 275.7
[3]
  Normalized Fluorescence 3.7 nM: 15.6
  Normalized Fluorescence 100 nM: 4.0
Human IgE
  Normalized Fluorescence Post Wash Median Green: 3.1
  Normalized Fluorescence Precomplex Median Deep Red: 3.3
